From ChEMBL document CHEMBL1201862, “PubChem BioAssay data set” (2004) come the findings set out here.

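All cell lines were grown in 96-well plates and treated with compound for 48 hours. GI50 is the concentration that inhibits growth by half.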 The source made the active and inactive calls. No stated cut-off is given here; in the data, active = GI50 up to about 1.1 µM and inactive = higher.

Common to all, as to assay: growth of human tumour cells (NCI), 48 h
Experiment [1] has as its system A498.
Experiment [2] deals with COLO 205.
For experiment [3], the system named is DU-145.
In experiment [4] the test system is EKVX.
For experiment [5], the system named is HCT-15.
The subject of experiment [6] is LOX IMVI.
The test system of experiment [7] is MCF7.
Experiment [8] deals with MDA-MB-231.
In experiment [9] the test system is MDA-MB-435.
In experiment [10] the test system is NCI-H23.
Experiment [11] deals with NCI-H522.
Experiment [12] concerns NCI/ADR-RES.
Experiment [13] relates to OVCAR-4.
For experiment [14], the system named is PC-3.
The subject of experiment [15] is SK-MEL-2.
Experiment [16] has as its system SN12C.
Experiment [17] concerns SR.
Experiment [18] concerns SW-620.
Experiment [19] has as its system NCI-H226.

In the case of `CCCCn1cnc2c(SC)ncnc21`, the GI50 in experiment [1] is > 100 µM (inactive); in [2] it was > 100 µM (inactive); in experiment [3] it was > 100 µM (inactive); in experiment [4], 41.7 µM (inactive); in experiment [5], over 100 µM; in experiment [6], > 100 µM (inactive). Moreover, the GI50 in [7], in experiment [8], in experiment [9], in experiment [10], in experiment [11] and in experiment [12] was > 100 µM (inactive) in each case. Also, the GI50 in [13] is > 100 µM (inactive); in [14] it was > 100 µM (inactive); in [15] it was > 100 µM (inactive); in experiment [16], > 100 µM (inactive); in experiment [17], 3.45 µM (inactive); in experiment [18], > 100 µM (inactive).
As for `c1ccc2c(c1)CCc1c-2n(CCN2CCOCC2)c2ccccc12`, the GI50 is 37.4 µM (inactive) in experiment [2]; > 100 µM (inactive) in experiment [3]; > 100 µM (inactive) in experiment [4]; over 100 µM in experiment [5]; > 100 µM (inactive) in experiment [6]; > 100 µM (inactive) in experiment [7]. Moreover, the GI50 in experiment [8] was > 100 µM (inactive); in experiment [9], > 100 µM (inactive); in experiment [19], 52.6 µM (inactive); in experiment [10], > 100 µM (inactive); in experiment [11], 13.3 µM (inactive); in [12], > 100 µM (inactive). The GI50 in [13] is > 100 µM (inactive); in experiment [14] it was 19.1 µM (inactive); in [15], 11.8 µM (inactive); in experiment [16] it was > 100 µM (inactive); in experiment [17], 15 µM (inactive); in [18], > 100 µM (inactive).
On to `CC1CN(c2cc3c(cc2F)c(=O)c(C(=O)O)cn3-c2ccc(N3CCN(C)CC3)cn2)CC(C)N1` (configuration not stated), for which the GI50 in [1] is > 100 µM (inactive); in experiment [2] it was 52.8 µM (inactive); in experiment [3], > 100 µM (inactive); in experiment [4], > 100 µM (inactive); in experiment [5], over 100 µM; in [7] it was 98.9 µM (inactive). Besides, the GI50 in experiment [8], in experiment [9], in [19], in [10], in experiment [12] and in experiment [13] was > 100 µM (inactive) each time. Also, the GI50 is > 100 µM (inactive) in experiment [14], > 100 µM (inactive) in experiment [16], > 100 µM (inactive) in [17] and 98.4 µM (inactive) in experiment [18].
On to `N=c1oc2ccccc2cc1C(=O)Nc1cccc2ccccc12`, for which the GI50 in experiment [1] was > 100 µM (inactive); in [2], > 100 µM (inactive); in experiment [3] it was > 100 µM (inactive); in experiment [5], over 100 µM; in experiment [6] it was > 100 µM (inactive); in experiment [7], 83.2 µM (inactive). Besides, the GI50 in experiment [8], in experiment [9], in [19], in experiment [10], in [12] and in [13] was > 100 µM (inactive) in each case. Moreover, the GI50 in [14], in [15], in [16], in experiment [17] and in [18] was > 100 µM (inactive) in each case.
Consider `O=C1/C(=C2\Sc3c(ccc(Cl)c3Cl)C2=O)Sc2c1ccc(Cl)c2Cl`, for which the GI50 in [1] was > 100 µM (inactive); in experiment [2] it was > 100 µM (inactive); in experiment [3] it was > 100 µM (inactive); in [4] it was > 100 µM (inactive); in [5], over 100 µM; in experiment [7], > 100 µM (inactive). Besides, the GI50 in experiment [8], in experiment [9], in experiment [19], in experiment [10], in [11] and in experiment [12] was > 100 µM (inactive) throughout. Moreover, the GI50 in experiment [13], in [14], in [15], in experiment [16], in [17] and in experiment [18] was > 100 µM (inactive) in each case.
With `Cc1nc2ccc(S(=O)(=O)Nc3ccccc3)cc2c(=O)n1NC(=O)CNc1ccccc1`, the GI50 was > 100 µM (inactive) in [2]; > 100 µM (inactive) in experiment [3]; > 100 µM (inactive) in [4]; over 100 µM in experiment [5]; > 100 µM (inactive) in experiment [6]; > 100 µM (inactive) in [7]. In addition, the GI50 in experiment [8], in experiment [9], in experiment [19], in experiment [10], in [11] and in experiment [12] was > 100 µM (inactive) each time. Further, the GI50 in [13], in experiment [14], in experiment [15], in [16], in [17] and in [18] was > 100 µM (inactive) each time.
`Cc1ccc(S(=O)(=O)NNC(=S)Nc2cccc3ccccc23)cc1`: the GI50 is 39.1 µM (inactive) in experiment [1]; 36.8 µM (inactive) in [2]; 69 µM (inactive) in experiment [3]; 38.3 µM (inactive) in experiment [4]; 67.5 µM in experiment [5]; 31.6 µM (inactive) in experiment [7]. The GI50 in experiment [8] was 54.8 µM (inactive); in [9], 41.5 µM (inactive); in [19], 29.4 µM (inactive); in experiment [10], 32.3 µM (inactive); in experiment [11] it was 16.7 µM (inactive); in [12], 38.1 µM (inactive). The GI50 in experiment [13] is 22.3 µM (inactive); in [14], 37.2 µM (inactive); in [15], 4.45 µM (inactive); in [16], 33.7 µM (inactive); in experiment [17], 46.3 µM (inactive); in experiment [18], > 100 µM (inactive).
As for `CCSC1=CC2(O)N(CCc3ccc(OC)c(OC)c3)C(=O)CC2(C(=O)OC)CC1=O` (configuration not stated), the GI50 was > 100 µM (inactive) in [1]; 77.6 µM (inactive) in [2]; 18.2 µM (inactive) in experiment [3]; 40.1 µM (inactive) in experiment [4]; 25.8 µM in experiment [5]; 19.1 µM (inactive) in [6]. Moreover, the GI50 in experiment [7] is 19.7 µM (inactive); in experiment [8] it was 18.3 µM (inactive); in [9], 21.2 µM (inactive); in [19], > 100 µM (inactive); in [10] it was 18.4 µM (inactive); in experiment [12], 65.9 µM (inactive). Also, the GI50 in experiment [13] was 35.8 µM (inactive); in [14], 18.7 µM (inactive); in experiment [15], 21.1 µM (inactive); in experiment [16], 19.6 µM (inactive); in experiment [17], 19.6 µM (inactive); in experiment [18] it was 25.2 µM (inactive).
For `C1=N\CCN2CCN(CC/N=C\c3ccccc3OCc3cccc(n3)COc3ccccc3/1)CC2`, the GI50 in experiment [1] is 40.9 µM (inactive); in experiment [2], 19.6 µM (inactive); in [3], 12.8 µM (inactive); in [4], 13 µM (inactive); in experiment [5] it was 6.01 µM; in experiment [7], 1.52 µM (inactive). Moreover, the GI50 in [8] is 16.4 µM (inactive); in experiment [9], 0.973 µM (active); in experiment [10], 14.6 µM (inactive); in [11], 24.2 µM (inactive); in experiment [12], 2.28 µM (inactive); in experiment [13], 6.15 µM (inactive). Further, the GI50 in experiment [14] was 9.46 µM (inactive); in experiment [15] it was 20.6 µM (inactive); in experiment [16] it was 10.6 µM (inactive); in [17], 1.71 µM (inactive); in experiment [18] it was 2.35 µM (inactive).
On to `CN(C)/N=C1\C=C2CC[C@H](O[Si](C)(C)C(C)(C)C)[C@@]2(C)CC1`, for which the GI50 is 17.8 µM (inactive) in experiment [1]; 16.9 µM (inactive) in experiment [2]; 15.8 µM (inactive) in experiment [3]; 21.7 µM (inactive) in [4]; 17.6 µM in [5]; 18.3 µM (inactive) in experiment [6]. In addition, the GI50 in [7] was 15.6 µM (inactive); in experiment [8], 16.6 µM (inactive); in [9], 16.4 µM (inactive); in experiment [19] it was 20.3 µM (inactive); in experiment [10], 23.2 µM (inactive); in experiment [11], 10.4 µM (inactive). Also, the GI50 was 18.2 µM (inactive) in [12]; 14.9 µM (inactive) in [13]; 14.1 µM (inactive) in experiment [14]; 16.2 µM (inactive) in experiment [15]; 18.6 µM (inactive) in experiment [17]; 17.5 µM (inactive) in experiment [18].
Turning to `O=C1CCCCC/C1=C\c1ccc([N+](=O)[O-])cc1`, the GI50 was 35.2 µM (inactive) in experiment [1]; 24 µM (inactive) in [2]; 41.4 µM (inactive) in experiment [3]; 35.3 µM (inactive) in [4]; 46.3 µM (inactive) in [7]; 13 µM (inactive) in experiment [8]. For the same molecule, the GI50 is 38.1 µM (inactive) in [9]; 37.8 µM (inactive) in experiment [12]; 38.6 µM (inactive) in experiment [14]; 33 µM (inactive) in experiment [15]; 23.7 µM (inactive) in experiment [16]; 40.1 µM (inactive) in experiment [17]. The GI50 in [18] was 39.9 µM (inactive).
Turning to `O=C(Nc1cccc(C(F)(F)F)c1)c1cc(Br)cc(Br)c1O` [FLUOROSALAN], the GI50 in [2] is 3.18 µM (inactive); in experiment [3], 2.9 µM (inactive); in experiment [4] it was 2.19 µM (inactive); in experiment [5] it was 4.5 µM; in experiment [6] it was 2.06 µM (inactive); in experiment [7], 2.89 µM (inactive). For the same molecule, the GI50 is 4.34 µM (inactive) in [8]; 3.2 µM (inactive) in experiment [9]; 3.51 µM (inactive) in [19]; 2.22 µM (inactive) in experiment [10]; 3 µM (inactive) in experiment [11]; 2.36 µM (inactive) in experiment [12]. Moreover, the GI50 in experiment [13] was 3.68 µM (inactive); in experiment [14], 2.32 µM (inactive); in experiment [15], 2.32 µM (inactive); in experiment [16], 3.59 µM (inactive); in experiment [17] it was > 10 µM (inactive); in experiment [18], 3.9 µM (inactive).
